ChEMBL document CHEMBL5465560, “Selectivity Literature for EUbOPEN Chemogenomic Library” (2024)

Experiments:
[1] = biological target: Phosphorylase b kinase gamma catalytic chain, skeletal muscle/heart isoform (Homo sapiens) (UniProt Q16816); conditions: at 10 µM
[2] = biological target: Glycogen synthase kinase-3 alpha (Homo sapiens, UniProt P49840); assay: Selectivity interaction (KinomeScan (DiscoverX)) EUB0000092b GSK3A; conditions: at 10 µM
[3] = biological target: Rho-associated protein kinase 2 (Homo sapiens, UniProt O75116); assay: Selectivity interaction (KinomeScan (DiscoverX)) EUB0000092b ROCK2; conditions: at 10 µM
Sequence of Rho-associated protein kinase 2 (O75116 whole entry, looked up): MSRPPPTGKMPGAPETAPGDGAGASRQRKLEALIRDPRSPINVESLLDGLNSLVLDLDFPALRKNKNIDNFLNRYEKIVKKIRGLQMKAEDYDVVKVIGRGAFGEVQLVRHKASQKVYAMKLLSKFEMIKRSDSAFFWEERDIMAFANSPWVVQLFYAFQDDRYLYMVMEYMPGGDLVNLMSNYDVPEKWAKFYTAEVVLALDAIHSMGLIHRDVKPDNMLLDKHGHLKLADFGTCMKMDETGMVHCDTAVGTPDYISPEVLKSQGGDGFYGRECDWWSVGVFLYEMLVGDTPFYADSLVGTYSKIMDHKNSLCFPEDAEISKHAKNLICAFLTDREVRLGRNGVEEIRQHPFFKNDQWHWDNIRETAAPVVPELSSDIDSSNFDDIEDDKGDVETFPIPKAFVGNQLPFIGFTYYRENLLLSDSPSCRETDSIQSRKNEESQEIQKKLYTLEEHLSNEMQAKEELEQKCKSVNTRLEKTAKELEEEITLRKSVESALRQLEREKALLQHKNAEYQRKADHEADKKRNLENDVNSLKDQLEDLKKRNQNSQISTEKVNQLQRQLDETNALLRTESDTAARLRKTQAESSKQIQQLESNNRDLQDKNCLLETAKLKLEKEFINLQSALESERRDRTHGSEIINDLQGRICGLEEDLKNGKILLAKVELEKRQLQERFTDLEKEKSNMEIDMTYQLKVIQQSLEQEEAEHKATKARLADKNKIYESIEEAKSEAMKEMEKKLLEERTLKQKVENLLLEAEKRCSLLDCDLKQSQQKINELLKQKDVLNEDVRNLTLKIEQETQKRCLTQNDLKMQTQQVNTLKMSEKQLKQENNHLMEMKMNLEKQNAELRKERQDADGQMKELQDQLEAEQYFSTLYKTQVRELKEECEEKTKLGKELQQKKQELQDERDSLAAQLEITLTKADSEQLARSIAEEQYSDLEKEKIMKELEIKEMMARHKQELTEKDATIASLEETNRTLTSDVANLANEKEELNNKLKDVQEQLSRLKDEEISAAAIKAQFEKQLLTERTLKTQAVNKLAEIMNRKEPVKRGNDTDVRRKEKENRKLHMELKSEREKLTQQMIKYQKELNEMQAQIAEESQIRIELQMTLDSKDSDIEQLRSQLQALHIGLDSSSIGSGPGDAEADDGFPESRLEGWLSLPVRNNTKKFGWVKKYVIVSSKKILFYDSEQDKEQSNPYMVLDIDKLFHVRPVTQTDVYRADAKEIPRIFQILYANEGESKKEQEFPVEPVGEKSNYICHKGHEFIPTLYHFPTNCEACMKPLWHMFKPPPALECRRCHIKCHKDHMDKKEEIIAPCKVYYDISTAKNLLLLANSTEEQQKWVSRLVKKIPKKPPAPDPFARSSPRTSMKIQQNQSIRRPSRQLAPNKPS

[4] = biological target: Vascular endothelial growth factor receptor 1 (Homo sapiens) (UniProt P17948); assay: Selectivity interaction (Kinase panel (DSF assay)) EUB0001559a FLT1
Sequence of Vascular endothelial growth factor receptor 1 (Homo sapiens) (P17948 whole entry): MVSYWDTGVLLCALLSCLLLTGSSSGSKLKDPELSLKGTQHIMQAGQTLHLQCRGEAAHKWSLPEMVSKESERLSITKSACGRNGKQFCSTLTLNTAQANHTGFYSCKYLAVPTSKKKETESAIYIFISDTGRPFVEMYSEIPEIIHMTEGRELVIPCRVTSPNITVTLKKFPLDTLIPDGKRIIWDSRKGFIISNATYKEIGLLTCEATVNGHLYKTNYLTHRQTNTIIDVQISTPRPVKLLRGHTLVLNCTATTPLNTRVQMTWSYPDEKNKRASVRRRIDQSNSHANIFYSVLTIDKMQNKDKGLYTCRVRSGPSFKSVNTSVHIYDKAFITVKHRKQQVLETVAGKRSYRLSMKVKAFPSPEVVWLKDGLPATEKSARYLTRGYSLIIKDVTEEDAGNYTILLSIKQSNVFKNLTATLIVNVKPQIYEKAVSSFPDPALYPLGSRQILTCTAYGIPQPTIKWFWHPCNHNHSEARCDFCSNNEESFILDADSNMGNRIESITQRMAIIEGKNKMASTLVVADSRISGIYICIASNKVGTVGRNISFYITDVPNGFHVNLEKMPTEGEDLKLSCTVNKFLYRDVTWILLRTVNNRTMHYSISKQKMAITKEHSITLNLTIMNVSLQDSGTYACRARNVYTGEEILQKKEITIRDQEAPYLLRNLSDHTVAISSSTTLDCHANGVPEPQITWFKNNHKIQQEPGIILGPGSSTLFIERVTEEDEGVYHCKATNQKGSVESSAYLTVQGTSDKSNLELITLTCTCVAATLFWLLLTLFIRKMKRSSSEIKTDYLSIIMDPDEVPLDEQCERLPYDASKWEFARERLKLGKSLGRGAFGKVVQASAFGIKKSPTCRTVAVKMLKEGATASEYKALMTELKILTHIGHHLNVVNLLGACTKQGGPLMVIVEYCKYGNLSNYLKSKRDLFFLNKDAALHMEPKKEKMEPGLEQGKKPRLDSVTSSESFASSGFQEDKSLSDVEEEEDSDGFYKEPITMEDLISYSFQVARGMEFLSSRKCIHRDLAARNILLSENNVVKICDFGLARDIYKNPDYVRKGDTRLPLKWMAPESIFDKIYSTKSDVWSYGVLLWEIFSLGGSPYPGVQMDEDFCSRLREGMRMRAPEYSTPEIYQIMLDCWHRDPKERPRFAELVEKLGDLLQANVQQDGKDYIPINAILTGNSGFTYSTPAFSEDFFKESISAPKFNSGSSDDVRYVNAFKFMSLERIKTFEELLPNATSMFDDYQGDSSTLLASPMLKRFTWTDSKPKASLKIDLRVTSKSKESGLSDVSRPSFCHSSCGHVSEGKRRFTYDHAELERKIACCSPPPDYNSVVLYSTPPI

[5] = biological target: T1, Aurora kinase C (Homo sapiens) (UniProt Q9UQB9); assay: Selectivity interaction (KinomeScan (DiscoverX)) EUB0001079a AURKC; conditions: at 1 µM
T1 sequence (whole entry): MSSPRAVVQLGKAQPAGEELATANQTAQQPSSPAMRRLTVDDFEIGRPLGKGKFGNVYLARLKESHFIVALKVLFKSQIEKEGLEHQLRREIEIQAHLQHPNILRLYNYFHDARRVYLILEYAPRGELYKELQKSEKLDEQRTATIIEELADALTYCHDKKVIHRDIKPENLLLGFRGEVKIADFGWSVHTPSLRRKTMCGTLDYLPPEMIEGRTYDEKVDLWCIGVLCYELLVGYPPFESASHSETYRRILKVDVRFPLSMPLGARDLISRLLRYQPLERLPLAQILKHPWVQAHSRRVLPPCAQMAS

[6] = biological target: SRSF protein kinase 2 (Homo sapiens) (UniProt P78362); assay: Selectivity interaction (KinomeScan (DiscoverX)) EUB0001079a SRPK2; conditions: at 1 µM
Sequence of SRSF protein kinase 2 (Homo sapiens) (P78362 whole entry, looked up): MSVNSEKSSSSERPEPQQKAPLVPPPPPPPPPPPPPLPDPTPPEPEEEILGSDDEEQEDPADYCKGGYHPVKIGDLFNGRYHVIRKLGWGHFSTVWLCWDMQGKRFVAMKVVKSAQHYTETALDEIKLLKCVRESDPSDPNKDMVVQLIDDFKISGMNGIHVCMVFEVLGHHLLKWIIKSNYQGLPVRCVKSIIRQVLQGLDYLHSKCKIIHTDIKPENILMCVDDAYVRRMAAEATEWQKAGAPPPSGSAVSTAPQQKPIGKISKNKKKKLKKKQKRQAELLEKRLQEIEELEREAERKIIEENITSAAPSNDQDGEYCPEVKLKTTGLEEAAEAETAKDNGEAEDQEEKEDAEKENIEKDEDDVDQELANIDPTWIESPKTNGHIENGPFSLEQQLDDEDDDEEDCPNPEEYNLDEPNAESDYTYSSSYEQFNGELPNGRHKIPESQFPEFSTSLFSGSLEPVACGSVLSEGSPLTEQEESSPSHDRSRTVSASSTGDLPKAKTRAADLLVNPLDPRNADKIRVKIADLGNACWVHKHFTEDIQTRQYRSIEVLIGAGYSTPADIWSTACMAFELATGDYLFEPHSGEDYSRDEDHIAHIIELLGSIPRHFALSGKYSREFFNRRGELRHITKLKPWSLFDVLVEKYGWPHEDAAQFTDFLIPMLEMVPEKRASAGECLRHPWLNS

[7] = biological target: T2, Serine/threonine-protein kinase haspin (Homo sapiens) (UniProt Q8TF76); assay: Selectivity interaction (Kinase panel (Invitrogen)) EUB0000639a GSG2; conditions: at 200 nM
T2 sequence (whole entry): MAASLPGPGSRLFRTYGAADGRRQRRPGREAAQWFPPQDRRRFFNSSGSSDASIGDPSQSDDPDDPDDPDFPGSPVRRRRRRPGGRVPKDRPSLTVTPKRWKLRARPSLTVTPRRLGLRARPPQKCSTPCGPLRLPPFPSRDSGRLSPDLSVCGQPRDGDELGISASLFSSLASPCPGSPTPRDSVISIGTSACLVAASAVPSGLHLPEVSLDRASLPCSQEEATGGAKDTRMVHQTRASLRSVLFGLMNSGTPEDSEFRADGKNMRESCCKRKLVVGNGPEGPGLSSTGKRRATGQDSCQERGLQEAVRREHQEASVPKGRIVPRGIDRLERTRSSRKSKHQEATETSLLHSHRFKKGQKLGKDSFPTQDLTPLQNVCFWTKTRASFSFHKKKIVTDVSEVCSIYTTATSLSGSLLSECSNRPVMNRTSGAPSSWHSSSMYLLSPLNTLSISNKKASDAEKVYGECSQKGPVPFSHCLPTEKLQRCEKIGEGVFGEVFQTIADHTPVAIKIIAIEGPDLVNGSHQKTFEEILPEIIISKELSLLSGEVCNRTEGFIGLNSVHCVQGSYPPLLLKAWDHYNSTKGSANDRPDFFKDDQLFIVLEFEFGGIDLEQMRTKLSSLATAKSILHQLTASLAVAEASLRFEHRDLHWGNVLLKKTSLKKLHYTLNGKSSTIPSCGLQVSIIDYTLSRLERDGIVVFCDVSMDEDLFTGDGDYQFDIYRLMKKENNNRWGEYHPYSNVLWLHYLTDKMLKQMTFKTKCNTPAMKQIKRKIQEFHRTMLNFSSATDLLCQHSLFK

[8] = biological target: T3, cAMP-dependent protein kinase catalytic subunit PRKX (Homo sapiens) (UniProt P51817); assay: Selectivity interaction (SelectScreen profiling (Invitrogen)) EUB0000607a PRKX; conditions: at 2 µM
T3 sequence (whole entry): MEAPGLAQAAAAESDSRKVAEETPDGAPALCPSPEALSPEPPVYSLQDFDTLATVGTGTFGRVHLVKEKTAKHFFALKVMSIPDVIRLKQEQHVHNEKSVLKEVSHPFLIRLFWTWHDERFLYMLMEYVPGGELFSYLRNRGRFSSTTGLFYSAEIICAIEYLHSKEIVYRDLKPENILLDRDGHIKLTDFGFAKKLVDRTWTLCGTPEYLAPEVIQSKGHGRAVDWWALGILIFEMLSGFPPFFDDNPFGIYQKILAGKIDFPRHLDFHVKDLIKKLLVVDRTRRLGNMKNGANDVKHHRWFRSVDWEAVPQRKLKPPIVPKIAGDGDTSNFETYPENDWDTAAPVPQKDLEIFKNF

[9] = biological target: Ribosomal protein S6 kinase alpha-2 (Homo sapiens) (UniProt Q15349); assay: Selectivity interaction (KinomeScan (DiscoverX)) EUB0000595a RPS6KA2; conditions: at 10 µM
Sequence of Ribosomal protein S6 kinase alpha-2 (Homo sapiens) (Q15349 whole entry): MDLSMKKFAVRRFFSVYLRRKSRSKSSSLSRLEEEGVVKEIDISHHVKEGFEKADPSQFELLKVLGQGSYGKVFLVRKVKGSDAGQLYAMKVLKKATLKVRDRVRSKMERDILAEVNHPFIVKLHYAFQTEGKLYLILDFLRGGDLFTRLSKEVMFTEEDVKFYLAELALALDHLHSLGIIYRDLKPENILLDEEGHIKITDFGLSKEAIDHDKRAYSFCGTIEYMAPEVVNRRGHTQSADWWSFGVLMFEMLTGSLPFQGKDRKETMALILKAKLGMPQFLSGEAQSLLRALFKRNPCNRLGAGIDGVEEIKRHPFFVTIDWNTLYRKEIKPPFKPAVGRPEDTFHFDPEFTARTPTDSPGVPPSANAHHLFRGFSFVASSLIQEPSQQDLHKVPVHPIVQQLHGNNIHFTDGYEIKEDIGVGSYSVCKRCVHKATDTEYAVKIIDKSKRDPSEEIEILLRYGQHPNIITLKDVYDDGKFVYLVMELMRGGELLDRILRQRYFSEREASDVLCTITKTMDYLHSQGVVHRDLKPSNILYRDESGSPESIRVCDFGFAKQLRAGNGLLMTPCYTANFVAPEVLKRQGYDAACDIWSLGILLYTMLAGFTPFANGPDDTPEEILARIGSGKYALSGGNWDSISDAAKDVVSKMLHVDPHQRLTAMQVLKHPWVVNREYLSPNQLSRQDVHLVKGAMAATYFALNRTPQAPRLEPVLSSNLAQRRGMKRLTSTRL

[10] = biological target: T4, Dual specificity tyrosine-phosphorylation-regulated kinase 2 (Homo sapiens) (UniProt Q92630); assay: Selectivity interaction (Ambit KINOMEscan and KiNATiv profiling in Jurkat cells) EUB0000090b DYRK2; assay type: cell-based; conditions: at 1 µM
T4 sequence (whole entry): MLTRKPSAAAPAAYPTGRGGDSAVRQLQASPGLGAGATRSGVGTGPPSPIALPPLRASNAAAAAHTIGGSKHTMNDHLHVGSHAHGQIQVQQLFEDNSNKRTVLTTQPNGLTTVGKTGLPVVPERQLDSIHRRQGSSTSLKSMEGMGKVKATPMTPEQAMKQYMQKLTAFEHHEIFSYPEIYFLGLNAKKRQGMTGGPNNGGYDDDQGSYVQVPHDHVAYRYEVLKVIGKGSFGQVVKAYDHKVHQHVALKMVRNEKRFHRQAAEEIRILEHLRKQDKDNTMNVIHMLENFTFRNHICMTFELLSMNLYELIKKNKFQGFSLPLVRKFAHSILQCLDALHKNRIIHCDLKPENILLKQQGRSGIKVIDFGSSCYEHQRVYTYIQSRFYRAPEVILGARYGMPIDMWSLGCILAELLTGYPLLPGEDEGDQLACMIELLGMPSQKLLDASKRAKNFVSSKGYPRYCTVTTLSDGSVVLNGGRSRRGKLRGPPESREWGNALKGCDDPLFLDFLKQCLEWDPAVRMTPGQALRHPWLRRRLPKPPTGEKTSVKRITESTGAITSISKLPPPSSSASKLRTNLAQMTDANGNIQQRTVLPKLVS

Sequence of Glycogen synthase kinase-3 alpha (P49840 2-483 limits assumed): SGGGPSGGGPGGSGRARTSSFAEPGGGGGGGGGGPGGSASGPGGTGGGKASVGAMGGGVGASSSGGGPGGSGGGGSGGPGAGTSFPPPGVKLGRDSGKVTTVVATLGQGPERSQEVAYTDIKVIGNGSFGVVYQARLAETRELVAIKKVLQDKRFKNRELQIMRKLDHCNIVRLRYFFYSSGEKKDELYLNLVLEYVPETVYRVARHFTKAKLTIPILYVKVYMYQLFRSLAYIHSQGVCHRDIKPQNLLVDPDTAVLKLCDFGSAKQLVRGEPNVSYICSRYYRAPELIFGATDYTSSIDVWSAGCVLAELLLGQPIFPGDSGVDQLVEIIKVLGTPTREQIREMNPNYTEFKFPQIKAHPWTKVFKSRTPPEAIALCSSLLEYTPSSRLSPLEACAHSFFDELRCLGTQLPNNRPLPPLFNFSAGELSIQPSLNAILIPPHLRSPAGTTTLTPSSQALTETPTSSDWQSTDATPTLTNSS
Sequence of Phosphorylase b kinase gamma catalytic chain, skeletal muscle/heart isoform (Homo sapiens) (Q16816 whole entry, looked up, canonical isoform): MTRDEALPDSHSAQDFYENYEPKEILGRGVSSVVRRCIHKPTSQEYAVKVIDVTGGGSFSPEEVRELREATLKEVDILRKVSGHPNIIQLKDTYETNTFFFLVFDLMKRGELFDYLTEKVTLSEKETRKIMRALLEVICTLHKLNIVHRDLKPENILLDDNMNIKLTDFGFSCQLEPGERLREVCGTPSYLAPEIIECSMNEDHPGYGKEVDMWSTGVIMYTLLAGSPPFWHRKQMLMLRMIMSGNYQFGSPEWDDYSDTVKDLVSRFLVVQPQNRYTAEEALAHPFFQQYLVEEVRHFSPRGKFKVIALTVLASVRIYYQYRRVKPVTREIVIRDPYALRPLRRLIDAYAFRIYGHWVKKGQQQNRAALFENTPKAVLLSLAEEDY

SMILES: CCN(CC)CCCCNc1ncc2cc(-c3cc(OC)cc(OC)c3)c(NC(=O)NC(C)(C)C)nc2n1
- % of control [1]: 100%

SMILES: CCC(=O)N1CCN(c2ccc(-n3c(=O)ccc4cnc5ccc(-c6cnc7ccccc7c6)cc5c43)cc2C(F)(F)F)CC1
- % of control [2]: 93%
- % of control [3]: 50%

SMILES: CN(C(=O)c1cnn2cccnc12)c1cc2c(cc1N1CCOCC1)C(=O)N(C[C@@H](F)C(C)(C)O)C2
- dTM [4]: -0.1 K

SMILES: Nc1cnc(N2CCc3cc(S(=O)(=O)Nc4c(F)cc(Cl)cc4F)cc(N4CCCC4=O)c32)nc1 [TP-020n]
- % of control [5]: 100%
- % of control [6]: 100%

SMILES: CC[C@@H]1[C@H](F)C(=O)N[C@@H]1COc1nccc2cc(C(N)=O)c(OC)cc12 [ZIMLOVISERTIB]
- % of inhibition [7]: 41.1%

SMILES: CNC(=O)Nc1ccc(-c2nc(N3CC4CCC(C3)O4)c3cnn(C4CCC5(CC4)OCCO5)c3n2)cc1
- % of inhibition [8]: 5%

SMILES: COCC(=O)NC/C=C/c1ccc2ncnc(Nc3ccc(Oc4ccc(C)nc4)c(C)c3)c2c1 [CP-724714]
- % of control [9]: 78%

SMILES: CN(C)C/C=C/C(=O)Nc1ccc(C(=O)N2CCCC(Nc3ncc(Cl)c(-c4c[nH]c5ccccc45)n3)C2)cc1 (stereo not given)
- % of control [10]: 7.4%
